According to PubChem BioAssay (NCI):
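These data come from cells grown in 96-well plates and exposed to compound for 48 hours at five concentrations. Here, GI50 denotes the concentration required for 50% inhibition of growth. TGI is the concentration that stops growth completely.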

Tests used:
Assay in all cases: growth of human tumour cells (NCI), 48 h
LOX IMVI melanoma = test system: LOX IMVI melanoma
RXF 393 renal = test system: RXF 393 renal
K-562 leukemia = test system: K-562 leukemia
SK-MEL-5 melanoma = test system: SK-MEL-5 melanoma
OVCAR-5 ovarian = test system: OVCAR-5 ovarian
MCF7 breast = test system: MCF7 breast
HOP-92 NSCLC = test system: HOP-92 NSCLC
NCI-H226 lung = test system: NCI-H226 lung
A549 NSCLC = test system: A549 NSCLC
A498 renal = test system: A498 renal
SF-539 CNS = test system: SF-539 CNS
MDA-MB-231 breast = test system: MDA-MB-231 breast
MDA-MB-435 = test system: MDA-MB-435
HCT-116 colon = test system: HCT-116 colon
HT29 colon = test system: HT29 colon
SNB-75 CNS = test system: SNB-75 CNS
U251 CNS = test system: U251 CNS
SK-MEL-28 melanoma = test system: SK-MEL-28 melanoma
COLO 205 colon = test system: COLO 205 colon
KM12 colon = test system: KM12 colon
PC-3 prostate = test system: PC-3 prostate
OVCAR-8 ovarian = test system: OVCAR-8 ovarian
MOLT-4 leukemia = test system: MOLT-4 leukemia
SNB-19 CNS = test system: SNB-19 CNS
M14 melanoma = test system: M14 melanoma
IGROV1 ovarian = test system: IGROV1 ovarian
SK-OV-3 ovarian = test system: SK-OV-3 ovarian
HOP-62 NSCLC = test system: HOP-62 NSCLC
SK-MEL-2 melanoma = test system: SK-MEL-2 melanoma
NCI-H23 lung = test system: NCI-H23 lung
NCI/ADR-RES ovarian = test system: NCI/ADR-RES ovarian
HCC-2998 colon = test system: HCC-2998 colon
NCI-H522 lung = test system: NCI-H522 lung
SF-295 CNS = test system: SF-295 CNS
UACC-62 melanoma = test system: UACC-62 melanoma
ACHN renal = test system: ACHN renal
RPMI-8226 leukemia = test system: RPMI-8226 leukemia
DU-145 prostate = test system: DU-145 prostate
EKVX NSCLC = test system: EKVX NSCLC
SN12C renal = test system: SN12C renal
SW-620 colon = test system: SW-620 colon
OVCAR-4 ovarian = test system: OVCAR-4 ovarian
HL-60(TB) leukemia = test system: HL-60(TB) leukemia
BT-549 breast = test system: BT-549 breast
OVCAR-3 ovarian = test system: OVCAR-3 ovarian
UO-31 renal = test system: UO-31 renal
786-0 renal = test system: 786-0 renal
CAKI-1 renal = test system: CAKI-1 renal
UACC-257 melanoma = test system: UACC-257 melanoma
CCRF-CEM leukemia = test system: CCRF-CEM leukemia
MDA-N = test system: MDA-N
SR leukemia = test system: SR leukemia
MALME-3M melanoma = test system: MALME-3M melanoma
HCT-15 colon = test system: HCT-15 colon
NCI-H460 lung = test system: NCI-H460 lung
T-47D breast = test system: T-47D breast
SF-268 CNS = test system: SF-268 CNS
TK-10 renal = test system: TK-10 renal
HS 578T breast = test system: HS 578T breast

## COc1nc2c(c(=O)n1C)N=C(c1ccccc1)[C@H](C(CC(=O)c1ccccc1)c1ccccc1)C(c1ccccc1)N2 (stereo not given in full)
LOX IMVI melanoma
  TGI: > 100 µM
RXF 393 renal
  TGI: > 100 µM
K-562 leukemia
  TGI: > 100 µM
SK-MEL-5 melanoma
  TGI: > 100 µM
OVCAR-5 ovarian
  TGI: > 100 µM
MCF7 breast
  TGI: > 100 µM
HOP-92 NSCLC
  TGI: > 100 µM
NCI-H226 lung
  TGI: > 100 µM
A549 NSCLC
  TGI: > 100 µM
A498 renal
  TGI: > 100 µM
SF-539 CNS
  TGI: > 100 µM
MDA-MB-231 breast
  TGI: 78.7 µM
MDA-MB-435
  TGI: > 100 µM
HCT-116 colon
  TGI: > 100 µM
HT29 colon
  TGI: > 100 µM
SNB-75 CNS
  TGI: 44.5 µM
U251 CNS
  TGI: > 100 µM
SK-MEL-28 melanoma
  TGI: > 100 µM
COLO 205 colon
  TGI: > 100 µM
KM12 colon
  TGI: > 100 µM
PC-3 prostate
  TGI: > 100 µM
OVCAR-8 ovarian
  TGI: > 100 µM
MOLT-4 leukemia
  TGI: 57.1 µM
SNB-19 CNS
  TGI: > 100 µM
M14 melanoma
  TGI: > 100 µM
IGROV1 ovarian
  TGI: > 100 µM
SK-OV-3 ovarian
  TGI: > 100 µM
HOP-62 NSCLC
  TGI: > 100 µM
SK-MEL-2 melanoma
  TGI: > 100 µM
NCI-H23 lung
  TGI: > 100 µM
NCI/ADR-RES ovarian
  TGI: > 100 µM
HCC-2998 colon
  TGI: > 100 µM
NCI-H522 lung
  TGI: > 100 µM
SF-295 CNS
  TGI: > 100 µM
UACC-62 melanoma
  TGI: > 100 µM
ACHN renal
  TGI: > 100 µM
RPMI-8226 leukemia
  TGI: > 100 µM
DU-145 prostate
  TGI: > 100 µM
EKVX NSCLC
  TGI: > 100 µM
SN12C renal
  TGI: > 100 µM
SW-620 colon
  TGI: > 100 µM
OVCAR-4 ovarian
  TGI: > 100 µM
HL-60(TB) leukemia
  TGI: > 100 µM
BT-549 breast
  TGI: > 100 µM
OVCAR-3 ovarian
  TGI: > 100 µM
UO-31 renal
  TGI: > 100 µM
786-0 renal
  TGI: > 100 µM
CAKI-1 renal
  TGI: > 100 µM
UACC-257 melanoma
  TGI: > 100 µM
CCRF-CEM leukemia
  TGI: > 100 µM
MDA-N
  TGI: > 100 µM
SR leukemia
  TGI: > 100 µM

## C/C(=C\c1cc(C(F)(F)F)n(-c2ccc(N)cc2)n1)[C@@H]1C[C@@H]2O[C@]2(C)CCC[C@H](C)[C@H](O)[C@@H](C)C(=O)C(C)(C)[C@@H](O)CC(=O)O1
LOX IMVI melanoma
  GI50: 0.0312 µM
  TGI: > 11.1 µM
RXF 393 renal
  GI50: 0.032 µM
  TGI: 0.379 µM
MALME-3M melanoma
  GI50: 0.089 µM
  TGI: > 11.1 µM
K-562 leukemia
  GI50: 0.0203 µM
  TGI: > 11.1 µM
SK-MEL-5 melanoma
  GI50: 0.0235 µM
  TGI: > 3.71 µM
HCT-15 colon
  GI50: 0.0256 µM
  TGI: > 11.1 µM
OVCAR-5 ovarian
  GI50: 0.0488 µM
  TGI: > 11.1 µM
MCF7 breast
  GI50: 0.0041 µM
  TGI: > 11.1 µM
NCI-H460 lung
  GI50: 0.00733 µM
  TGI: > 5.06 µM
HOP-92 NSCLC
  GI50: 0.258 µM
  TGI: > 11.1 µM
T-47D breast
  GI50: 0.0542 µM
  TGI: > 11.1 µM
NCI-H226 lung
  GI50: 0.956 µM
  TGI: > 11.1 µM
A549 NSCLC
  GI50: 0.0489 µM
  TGI: > 11.1 µM
A498 renal
  GI50: 0.0438 µM
SF-539 CNS
  GI50: 0.025 µM
  TGI: 0.336 µM
MDA-MB-231 breast
  GI50: 0.137 µM
  TGI: > 11.1 µM
MDA-MB-435
  GI50: 0.00227 µM
  TGI: 0.00567 µM
HCT-116 colon
  GI50: 0.00775 µM
  TGI: > 5.49 µM
HT29 colon
  GI50: 0.00621 µM
  TGI: 0.339 µM
SNB-75 CNS
  GI50: 0.0078 µM
  TGI: 0.189 µM
U251 CNS
  GI50: 0.0477 µM
  TGI: > 11.1 µM
SK-MEL-28 melanoma
  GI50: 0.547 µM
  TGI: > 11.1 µM
COLO 205 colon
  GI50: 0.0162 µM
  TGI: 0.582 µM
KM12 colon
  GI50: 0.00522 µM
  TGI: > 11.1 µM
PC-3 prostate
  GI50: 0.0297 µM
  TGI: > 11.1 µM
OVCAR-8 ovarian
  GI50: 0.0557 µM
  TGI: > 11.1 µM
MOLT-4 leukemia
  GI50: 0.0515 µM
  TGI: > 11.1 µM
SNB-19 CNS
  GI50: 0.0711 µM
  TGI: > 11.1 µM
M14 melanoma
  GI50: 0.0166 µM
  TGI: 0.096 µM
IGROV1 ovarian
  GI50: 0.068 µM
  TGI: > 11.1 µM
SK-OV-3 ovarian
  GI50: 0.0575 µM
  TGI: > 11.1 µM
HOP-62 NSCLC
  GI50: 0.0762 µM
  TGI: > 11.1 µM
SK-MEL-2 melanoma
  GI50: 0.0295 µM
  TGI: 0.382 µM
NCI-H23 lung
  GI50: 0.0829 µM
  TGI: > 11.1 µM
SF-268 CNS
  GI50: 0.0502 µM
  TGI: > 11.1 µM
NCI/ADR-RES ovarian
  GI50: 0.164 µM
  TGI: > 8.45 µM
HCC-2998 colon
  GI50: 0.0244 µM
  TGI: 1.39 µM
NCI-H522 lung
  GI50: 0.0233 µM
  TGI: 0.0839 µM
SF-295 CNS
  GI50: 0.0369 µM
  TGI: 1.39 µM
UACC-62 melanoma
  GI50: 0.0245 µM
  TGI: > 6.85 µM
ACHN renal
  GI50: 0.0822 µM
  TGI: > 11.1 µM
RPMI-8226 leukemia
  GI50: < 0.0106 µM
  TGI: > 11.1 µM
DU-145 prostate
  GI50: 0.0372 µM
  TGI: 0.265 µM
EKVX NSCLC
  GI50: 0.23 µM
  TGI: > 11.1 µM
SN12C renal
  GI50: 0.396 µM
  TGI: > 11.1 µM
SW-620 colon
  GI50: 0.00554 µM
  TGI: > 11.1 µM
OVCAR-4 ovarian
  GI50: 2.19 µM
  TGI: > 11.1 µM
HL-60(TB) leukemia
  GI50: 0.0168 µM
  TGI: 2.68 µM
BT-549 breast
  GI50: 0.065 µM
  TGI: 3.44 µM
OVCAR-3 ovarian
  GI50: 0.0182 µM
  TGI: 1.75 µM
UO-31 renal
  GI50: 0.0791 µM
  TGI: > 11.1 µM
786-0 renal
  GI50: 0.0614 µM
  TGI: > 11.1 µM
CAKI-1 renal
  GI50: 0.221 µM
  TGI: > 11.1 µM
UACC-257 melanoma
  GI50: 0.965 µM
  TGI: > 11.1 µM
TK-10 renal
  GI50: 0.0578 µM
  TGI: 7.95 µM
CCRF-CEM leukemia
  GI50: 0.0421 µM
  TGI: > 11.1 µM
HS 578T breast
  GI50: 0.0287 µM
  TGI: 0.627 µM
SR leukemia
  GI50: 0.0225 µM
  TGI: 2.18 µM

## Nc1ccc(C23CC4CC(C2)CC(c2ccc(N)cc2)(C4)C3)cc1
LOX IMVI melanoma
  TGI: > 100 µM
K-562 leukemia
  TGI: 36.8 µM
SK-MEL-5 melanoma
  TGI: 26.9 µM
HCT-15 colon
  TGI: > 100 µM
OVCAR-5 ovarian
  TGI: 61.4 µM
MCF7 breast
  TGI: > 100 µM
NCI-H460 lung
  TGI: > 100 µM
HOP-92 NSCLC
  TGI: > 100 µM
NCI-H226 lung
  TGI: 44.9 µM
A549 NSCLC
  TGI: > 100 µM
A498 renal
  TGI: 47.4 µM
SF-539 CNS
  TGI: 31.1 µM
MDA-MB-435
  TGI: > 100 µM
HCT-116 colon
  TGI: > 100 µM
U251 CNS
  TGI: 35.6 µM
SK-MEL-28 melanoma
  TGI: > 100 µM
COLO 205 colon
  TGI: 52.5 µM
KM12 colon
  TGI: > 100 µM
OVCAR-8 ovarian
  TGI: > 100 µM
MOLT-4 leukemia
  TGI: 28.4 µM
SNB-19 CNS
  TGI: > 100 µM
M14 melanoma
  TGI: 85.5 µM
IGROV1 ovarian
  TGI: > 100 µM
HOP-62 NSCLC
  TGI: > 100 µM
SK-MEL-2 melanoma
  TGI: > 100 µM
NCI-H23 lung
  TGI: > 100 µM
SF-268 CNS
  TGI: > 100 µM
NCI/ADR-RES ovarian
  TGI: > 100 µM
HCC-2998 colon
  TGI: 78.6 µM
UACC-62 melanoma
  TGI: > 100 µM
ACHN renal
  TGI: > 100 µM
RPMI-8226 leukemia
  TGI: 27.4 µM
DU-145 prostate
  TGI: > 100 µM
EKVX NSCLC
  TGI: 81.6 µM
SN12C renal
  TGI: 59.5 µM
SW-620 colon
  TGI: 28 µM
OVCAR-4 ovarian
  TGI: > 100 µM
HL-60(TB) leukemia
  TGI: 51 µM
BT-549 breast
  TGI: > 100 µM
OVCAR-3 ovarian
  TGI: > 100 µM
UO-31 renal
  TGI: > 100 µM
786-0 renal
  TGI: > 100 µM
CAKI-1 renal
  TGI: > 100 µM
UACC-257 melanoma
  TGI: > 100 µM
TK-10 renal
  TGI: > 100 µM
CCRF-CEM leukemia
  TGI: 29.7 µM
MDA-N
  TGI: > 100 µM
SR leukemia
  TGI: 38.5 µM
